Like-named read-outs stand apart in the source and are kept apart here.
Assays:
human CB2 receptors = biological target: T1, human CB2 receptors (Homo sapiens, UniProt P34972); assay: Human CB2 radioligand binding assay ([3H]CP-55,940 competition)
T1 construct: expressed in transfected cells; host or cells: HEK293
Summary of the method: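 Membranes from HEK293 cells stably expressing human CB2 (5 μg/well) incubated 90 min at 30 °C with 0.5 nM [3H]CP-55,940 and five concentrations of displacer (0.01 nM–10 μM) in pH 7.4 Tris/EDTA/MgCl2 buffer with fatty acid free BSA. Bound radioactivity counted after filtration; nonspecific binding defined with 10 μM unlabeled CP-55,940.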

rat CB2 receptors = biological target: T2, rat CB2 receptors (Rattus norvegicus, UniProt Q9QZN9); assay: Rat CB2 radioligand binding assay ([3H]CP-55,940 competition)
T2 construct: expressed in transfected cells; host or cells: HEK293
T2 sequence (Q9QZN9 1-360): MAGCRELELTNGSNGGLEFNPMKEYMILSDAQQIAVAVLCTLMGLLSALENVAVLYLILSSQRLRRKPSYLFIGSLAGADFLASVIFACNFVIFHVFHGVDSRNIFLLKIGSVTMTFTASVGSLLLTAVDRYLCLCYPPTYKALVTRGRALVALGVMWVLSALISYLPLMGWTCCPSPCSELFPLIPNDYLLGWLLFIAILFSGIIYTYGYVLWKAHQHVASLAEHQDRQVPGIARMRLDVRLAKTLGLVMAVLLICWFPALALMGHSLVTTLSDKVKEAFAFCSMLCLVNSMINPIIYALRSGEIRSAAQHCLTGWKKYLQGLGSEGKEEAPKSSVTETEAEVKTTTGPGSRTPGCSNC
Summary of the method: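 Membranes from HEK293 cells stably expressing rat CB2 (20 μg/well) incubated 45 min at 30 °C with 0.5 nM [3H]CP-55,940 and five competitor concentrations in Tris/EDTA/MgCl2 buffer with 0.5 mg/mL BSA, pH 7.4. Filtration and scintillation counting; nonspecific binding with 10 μM unlabeled CP-55,940.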

T1 sequence (P34972 whole entry): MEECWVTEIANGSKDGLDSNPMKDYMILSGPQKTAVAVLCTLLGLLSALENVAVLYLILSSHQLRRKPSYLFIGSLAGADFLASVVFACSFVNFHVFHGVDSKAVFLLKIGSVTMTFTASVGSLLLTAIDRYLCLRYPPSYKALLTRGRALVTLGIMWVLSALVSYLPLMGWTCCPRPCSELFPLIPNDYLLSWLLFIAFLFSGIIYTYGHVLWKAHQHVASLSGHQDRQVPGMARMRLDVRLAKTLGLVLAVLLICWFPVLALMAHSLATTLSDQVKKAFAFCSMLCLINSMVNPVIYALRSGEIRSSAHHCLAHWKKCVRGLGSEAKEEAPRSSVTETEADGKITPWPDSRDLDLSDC

Cn1c(C(C)(C)C)c/c(=N\C(=O)c2cc(OCCF)cc(C(F)(F)F)c2)n1C[C@H]1CCCO1 [Example 105, N-{(3E)-5-tert-butyl-1-methyl-2-[(2R)-tetrahydrofuran-2-ylmethyl]-1,2-dihydro-3H-pyrazol-3-ylidene}-3-(2-fluoroethoxy)-5-(trifluoromethyl)benazmide] was tested, and the Ki (human CB2 receptors) was 69 nM and the Ki (rat CB2 receptors) was 10 nM.

For Cn1c(C(C)(C)C)c/c(=N\C(=O)c2cc(Cl)ccc2F)n1C[C@H]1CCCO1 [Example 116], the Ki (human CB2 receptors) was 26 nM and the Ki (rat CB2 receptors) was 11 nM.

For C/C=C/c1ccc(C(F)(F)F)cc1C(=O)/N=c1\cc(C(C)(C)C)n(C)n1C[C@H]1CCCO1 [Example 99, N-{(3E)-5-tert-butyl-1-methyl-2-[(2R)-tetrahydrofuran-2-ylmethyl]-1,2-dihydro-3H-pyrazol-3-ylidene}-2-[(1E)-prop-1-enyl]-5-(trifluoromethyl)benazmide], the Ki (human CB2 receptors) was 12 nM and the Ki (rat CB2 receptors) was 3.5 nM.

In the case of Cn1c(C(C)(C)C)c/c(=N\C(=O)c2cc(C(F)(F)F)ccc2CCC(C)(C)O)n1C[C@H]1CCCO1 [Example 101, N-{(3E)-5-tert-butyl-1-methyl-2-[(2R)-tetrahydrofuran-2-ylmethyl]-1,2-dihydro-3H-pyrazol-3-ylidene}-2-(3-hydroxy-3-methylbutyl)-5-(trifluoromethyl)benazmide], the Ki (human CB2 receptors) is reported as 49 nM and the Ki (rat CB2 receptors) is reported as 34 nM.

CC(F)COc1ccc(C(F)(F)F)cc1C(=O)/N=c1\cc(C(C)(C)C)n(C)n1C[C@H]1CCCO1 (stereo partly drawn) [Example 40, N-{(3E)-5-tert-butyl-1-methyl-2-[(2R)-tetrahydrofuran-2-ylmethyl]-1,2-dihydro-3H-pyrazol-3-ylidene}-2-(2-fluoropropoxy)-5-(trifluoromethyl)benzamide] gave a Ki (human CB2 receptors) of 32 nM and a Ki (rat CB2 receptors) of 22 nM.

For Cn1c(C(C)(C)C)c/c(=N\C(=O)c2cc(C#N)ccc2F)n1C[C@H]1CCCO1 [Example 114, N-{(3E)-5-tert-butyl-1-methyl-2-[(2R)-tetrahydrofuran-2-ylmethyl]-1,2-dihydro-3H-pyrazol-3-ylidene}-5-cyano-2-fluorobenzamide], the Ki (human CB2 receptors) was 41 nM and the Ki (rat CB2 receptors) was 20 nM.

Cn1c(C(C)(C)C)c/c(=N\C(=O)c2cc(F)cc(F)c2F)n1C[C@H]1CCCO1 [Example 51, N-{(3E)-5-tert-butyl-1-methyl-2-[(2R)-tetrahydrofuran-2-ylmethyl]-1,2-dihydro-3H-pyrazol-3-ylidene}-2,3,5-trifluorobenzamide] was tested, and the Ki (human CB2 receptors) was 68 nM and the Ki (rat CB2 receptors) was 67 nM.

With Cn1c(C(C)(C)C)c/c(=N\C(=O)c2cc(C(F)(F)F)ccc2NCCF)n1C[C@H]1CCCO1 [Example 39, N-{(3E)-5-tert-butyl-1-methyl-2-[(2R)-tetrahydrofuran-2-ylmethyl]-1,2-dihydro-3H-pyrazol-3-ylidene}-2-[(2-fluoroethyl)amino]-5-(trifluoromethyl)benzamide] the Ki (human CB2 receptors) was 8.9 nM and the Ki (rat CB2 receptors) was 3.8 nM.

Compound Cn1c(C(C)(C)C)c/c(=N\C(=O)c2cc(C(F)(F)F)ccc2Br)n1C[C@H]1CCCO1 [Example 88, 2-bromo-N-{(3E)-5-tert-butyl-1-methyl-2-[(2R)-tetrahydrofuran-2-ylmethyl]-1,2-dihydro-3H-pyrazol-3-ylidene}-5-(trifluoromethyl)benzamide] has a Ki (human CB2 receptors) of 20 nM and a Ki (rat CB2 receptors) of 5.4 nM.

Cn1c(C(C)(C)C)c/c(=N\C(=O)c2cc(Br)cc3c2OCC3)n1C[C@H]1CCCO1 [Example 60, 5-bromo-N-{(3E)-5-tert-butyl-1-methyl-2-[(2R)-tetrahydrofuran-2-ylmethyl]-1,2-dihydro-3H-pyrazol-3-ylidene}-2,3-dihydro-1-benzofuran-7-carboxamide] showed a Ki (human CB2 receptors) of 66 nM and a Ki (rat CB2 receptors) of 46 nM.

Cn1c(C(C)(C)C)c/c(=N\C(=O)c2cc(C(F)(F)F)ccc2NS(C)(=O)=O)n1C[C@H]1CCCO1 [Example 113, N-{(3E)-5-tert-butyl-1-methyl-2-[(2R)-tetrahydrofuran-2-ylmethyl]-1,2-dihydro-3H-pyrazol-3-ylidene}-2-[(methylsulfonyl)amino]-5-(trifluoromethyl)benzamide] showed a Ki (human CB2 receptors) of 110 nM and a Ki (rat CB2 receptors) of 40 nM.

Compound Cn1c(C(C)(C)C)c/c(=N\C(=O)c2cc(C(F)(F)F)ccc2OC(C)(C)C)n1C[C@H]1CCCO1 [Example 25, 2-tert-butoxy-N-{(3E)-5-tert-butyl-1-methyl-2-[(2R)-tetrahydrofuran-2-ylmethyl]-1,2-dihydro-3H-pyrazol-3-ylidene}-5-(trifluoromethyl)benzamide] has a Ki (human CB2 receptors) of 101 nM and a Ki (rat CB2 receptors) of 40 nM.

For COCCOc1ccc(C(F)(F)F)cc1C(=O)/N=c1\cc(C(C)(C)C)n(C)n1C[C@H]1CCCO1 [Example 23, N-{(3E)-5-tert-butyl-1-methyl-2-[(2R)-tetrahydrofuran-2-ylmethyl]-1,2-dihydro-3H-pyrazol-3-ylidene}-2-(2-methoxyethoxy)-5-(trifluoromethyl)benzamide], the Ki (human CB2 receptors) was 30 nM and the Ki (rat CB2 receptors) was 19 nM.

COC(C)(C)CCOc1ccc(C(F)(F)F)cc1C(=O)/N=c1\cc(C(C)(C)C)n(C)n1C[C@H]1CCCO1 [Example 20, N-{(3E)-5-tert-butyl-1-methyl-2-[(2R)-tetrahydrofuran-2-ylmethyl]-1,2-dihydro-3H-pyrazol-3-ylidene}-2-(3-methoxy-3-methylbutoxy)-5-(trifluoromethyl)benzamide] showed a Ki (human CB2 receptors) of 25 nM and a Ki (rat CB2 receptors) of 23 nM.

CC(C)[C@@H](CO)NC(=O)/N=c1\sc(C(C)(C)C)nn1C[C@H]1CCCO1 [Example 84, N-[(2Z)-5-tert-butyl-3-[(2R)-tetrahydrofuran-2-ylmethyl]-1,3,4-thiadiazol-2(3 H)-ylidene]-N′-[(1S)-1-(hydroxymethyl)-2-methylpropyl]urea] was tested, and the Ki (human CB2 receptors) was 199 nM and the Ki (rat CB2 receptors) was 73 nM.

Cn1c(C(C)(C)C)c/c(=N\C(=O)c2cccc(C(F)(F)F)c2F)n1C[C@H]1CCCO1 [Example 46, N-{(3E)-5-tert-butyl-1-methyl-2-[(2R)-tetrahydrofuran-2-ylmethyl]-1,2-dihydro-3H-pyrazol-3-ylidene}-2-fluoro-3-(trifluoromethyl)benzamide] was tested, and the Ki (human CB2 receptors) was 0.7 nM and the Ki (rat CB2 receptors) was 1.3 nM.

In the case of CC(CF)Oc1ccc(C(F)(F)F)cc1C(=O)/N=c1\cc(C(C)(C)C)n(C)n1C[C@H]1CCCO1 (stereo partly drawn) [Example 42, N-{(3E)-5-tert-butyl-1-methyl-2-[(2R)-tetrahydrofuran-2-ylmethyl]-1,2-dihydro-3H-pyrazol-3-ylidene}-2-(2-fluoro-1-methylethoxy)-5-(trifluoromethyl)benzamide], the Ki (human CB2 receptors) is reported as 139 nM and the Ki (rat CB2 receptors) is reported as 30 nM.

COc1ccc(Cl)cc1C(=O)/N=c1\sc(C2(C)CC(F)(F)C2(F)F)nn1C[C@H]1CCCO1 (stereo partly drawn) [Example 7, 5-chloro-2-methoxy-N-[(2Z)-5-(2,2,3,3-tetrafluoro-1-methylcyclobutyl)-3-[(2 R)-tetrahydrofuran-2-ylmethyl]-1,3,4-thiadiazol-2(3H)-ylidene]benzamide] gave a Ki (human CB2 receptors) of 38 nM and a Ki (rat CB2 receptors) of 1.6 nM.

COc1ccc(C(F)(F)F)cc1C(=O)/N=c1\cc(C(C)(C)C)n(C)n1CC1CC[C@@H](C)O1 (mixture of isomers) [Example 64, N-((3E)-5-tert-butyl-1-methyl-2-{[(5R)-5-methyltetrahydrofuran-2-yl]methyl}-1,2-dihydro-3H-pyrazol-3-ylidene)-2-methoxy-5-(trifluoromethyl)benzamide] gave a Ki (human CB2 receptors) of 30 nM and a Ki (rat CB2 receptors) of 6.2 nM.

For COC(=O)Cc1ccc(C(F)(F)F)cc1C(=O)/N=c1\cc(C(C)(C)C)n(C)n1C[C@H]1CCCO1 [Example 128, methyl [2-[({(3E)-5-tert-butyl-1-methyl-2-[(2R)-tetrahydrofuran-2-ylmethyl]-1,2-dihydro-3H-pyrazol-3-ylidene}amino)carbonyl]-4-(trifluoromethyl)phenyl]acetate], the Ki (human CB2 receptors) was 243 nM and the Ki (rat CB2 receptors) was 107 nM.

With COc1c(F)cc(F)cc1C(=O)/N=c1\cc(C(C)(C)C)n(C)n1C[C@H]1CCCO1 [Example 55, N-{(3E)-5-tert-butyl-1-methyl-2-[(2R)-tetrahydrofuran-2-ylmethyl]-1,2-dihydro-3H-pyrazol-3-ylidene}-3,5-difluoro-2-methoxybenzamide] the Ki (human CB2 receptors; HEK293 membranes, 0.5 nM [3H]CP-55,940, read-out: human CB2 Ki) was 152 nM and the Ki (rat CB2 receptors; HEK293 membranes, 0.5 nM [3H]CP-55,940, read-out: rat CB2 Ki) was 143 nM.

For Cn1c(C(C)(C)C)c/c(=N\C(=O)c2cc(C(F)(F)F)ccc2/C=N\OC(C)(C)C)n1C[C@H]1CCCO1 [Example 109, 2-[(Z)-(tert-butoxyimino)methyl]-N-{(3E)-5-tert-butyl-1-methyl-2-[(2R)-tetrahydrofuran-2-ylmethyl]-1,2-dihydro-3H-pyrazol-3-ylidene}-5-(trifluoromethyl)benzamide], the Ki (human CB2 receptors) was 23 nM and the Ki (rat CB2 receptors) was 15 nM.

C#CC(C)(C)c1nn(C[C@H]2CCCO2)/c(=N/C(=O)c2cc(Cl)ccc2OC)s1 [Example 6, 5-chloro-N-[(2Z)-5-(1,1-dimethylprop-2-ynyl)-3-[(2R)-tetrahydrofuran-2-ylmethyl]-1,3,4-thiadiazol-2(3H)-ylidene]-2-methoxybenzamide] gave a Ki (human CB2 receptors) of 20 nM and a Ki (rat CB2 receptors) of 3.3 nM.

For Cn1c(C(C)(C)C)c/c(=N\C(=O)c2cc(F)cc(C(F)(F)F)c2)n1C[C@H]1CCCO1 [Example 96, N-{(3E)-5-tert-butyl-1-methyl-2-[(2R)-tetrahydrofuran-2-ylmethyl]-1,2-dihydro-3H-pyrazol-3-ylidene}-3-fluoro-5-(trifluoromethyl)benzamide], the Ki (human CB2 receptors) was 13 nM and the Ki (rat CB2 receptors) was 3.7 nM.

— patent publication US8492371B2, “Compounds as cannabinoid receptor ligands” (priority 2009, dated 2013)
